Results published in article PMC9019904, “AD Informer Set: Chemical tools to facilitate Alzheimer's disease drug discovery” (Alzheimer's & Dementia : Translational Research & Clinical …, 2022).
Values after ≈ are worked out from the molar mass of the structure shown. Each block holds one compound with its values, some of them ahead of it. Where a SMILES comes first, the peptide text is derived from it. [ ]: non-standard residue; d: D form. dHyp = O=C(O)[C@H]1C[C@H](O)CN1

Legend:
[1] = tested on: BV2 (mouse microglia) cell line; experiment: pHrodo-myelin phagocytosis/cell viability high content imaging assay: viability (cell count, nuclear area, nuclear intensity)
Method in brief: (§1)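 Viability was read by high-content imaging as cell count per well and nuclear intensity per cell, in murine BV2 and human HMC3 microglial lines. Cells received a single 10 μM compound dose for 48 h, including 20 h with pHrodo-myelin. Duplicate means are expressed as % of untreated control.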

[2] = tested on: BV2 (mouse microglia) cell line; experiment: pHrodo-myelin phagocytosis/cell viability high content imaging assay: phagocytosis signal; assay type: cell-based
Method in brief: (§2)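 Mouse BV2 and human HMC3 microglia given pHrodo-myelin; phagocytosis and cell viability imaged together by high content imaging about 22 hours after myelin addition. Three measurements extracted, including intensity increase and decrease marking early and later apoptosis.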

[3] = tested on: HMC3 (human microglia) cell line; experiment: as above; assay type: cell-based
Method in brief: as §2

[4] = tested on: HMC3 (human microglia) cell line; experiment: pHrodo-myelin phagocytosis/cell viability high content imaging assay: viability (cell count, nuclear area, nuclear intensity)
Method in brief: as §1

cellular system = settings: published cellular activity at 10 μM; cited from earlier work
[5] = Kinetic solubility in aqueous buffer pH 7.4 by total chemiluminescent nitrogen determination (Analiza); settings: aqueous buffer pH 7.4
[6] = pH 7.4, aqueous buffer, kinetic from dmso stock

SMILES: O=S(=O)(c1ccc2c(c1)C(=NO)c1cc(S(=O)(=O)N3CCCCC3)ccc1-2)N1CCCCC1 [CA3 (CIL56)]
Mouse microglial cytotoxicity at 10 μM (<70% control) ([1]; BV2, 10 μM, cell count <70% control): Y (The compound was found to be cytotoxic (cell count threshold: <70% control) when murine immortalized microglial cells were dosed at 10 μM (Y: yes))
Human microglial cytotoxicity at 10 μM (<70% control) ([4]; HMC3, 10 μM, cell count <70% control): Y (The compound was found to be cytotoxic (cell count threshold: <70% control) when human immortalized microglial cells were dosed at 10 μM (Y: yes))
Inhibition of mouse microglial phagocytosis at 10 μM (<70% control) ([2]; BV2, 10 μM): Y (The compound was found to inhibit phagocytosis (response threshold: <70% control) when murine immortalized microglial cells were dosed at 10 μM (Y: yes))
Inhibition of human microglial phagocytosis at 10 μM (<70% control) ([3]; HMC3, 10 μM): Y (The compound was found to inhibit phagocytosis (response threshold: <70% control) when human immortalized microglial cells were dosed at 10 μM (Y: yes))
solubility kinetic (physchem; [6]): 1.2 µM (≈ 0.588 µg/mL)

SMILES: CC(C)CCC[C@@H](C)[C@H]1CC[C@H]2[C@@H]3CC[C@H]4C[C@H](N)CC[C@]4(C)[C@H]3CC[C@]12C [3α-Aminocholestane]
Mouse microglial cytotoxicity at 10 μM (<70% control) ([1]; 10 μM, BV2): Y (The compound was found to be cytotoxic (cell count threshold: <70% control) when murine immortalized microglial cells were dosed at 10 μM (Y: yes))
Stimulation of mouse microglial phagocytosis at 10 μM (>150% control) ([2]; 10 μM, BV2): Y (The compound was found to stimulate phagocytosis (response threshold: >150% control) when murine immortalized microglial cells were dosed at 10 μM (Y: yes))
Inhibition of human microglial phagocytosis at 10 μM (<70% control) ([3]; 10 μM, HMC3): Y (The compound was found to inhibit phagocytosis (response threshold: <70% control) when human immortalized microglial cells were dosed at 10 μM (Y: yes))
solubility kinetic (physchem; [6]): 2.2 µM (≈ 0.853 µg/mL)

SMILES: CCc1cc2c(cc1N1CCC(N3CCOCC3)CC1)C(C)(C)c1[nH]c3cc(C#N)ccc3c1C2=O [Alectinib]
Human microglial cytotoxicity at 10 μM (<70% control) ([4]; HMC3, 10 μM): Y (The compound was found to be cytotoxic (cell count threshold: <70% control) when human immortalized microglial cells were dosed at 10 μM (Y: yes))
Stimulation of mouse microglial phagocytosis at 10 μM (>150% control) ([2]; BV2, 10 μM): Y (The compound was found to stimulate phagocytosis (response threshold: >150% control) when murine immortalized microglial cells were dosed at 10 μM (Y: yes))
Inhibition of human microglial phagocytosis at 10 μM (<70% control) ([3]; HMC3, 10 μM): Y (The compound was found to inhibit phagocytosis (response threshold: <70% control) when human immortalized microglial cells were dosed at 10 μM (Y: yes))
solubility kinetic (physchem; [6]): 0.6 µM (≈ 0.29 µg/mL)

SMILES: COS(=O)(=O)[O-].C[n+]1c2ccccc2nc2ccccc21 [Phenazine methosulfate]
Mouse microglial cytotoxicity at 10 μM (<70% control) ([1]; BV2 cells, 10 μM, cell count <70% control): Y (The compound was found to be cytotoxic (cell count threshold: <70% control) when murine immortalized microglial cells were dosed at 10 μM (Y: yes))
Human microglial cytotoxicity at 10 μM (<70% control) ([4]; HMC3 cells, 10 μM, cell count <70% control): Y (The compound was found to be cytotoxic (cell count threshold: <70% control) when human immortalized microglial cells were dosed at 10 μM (Y: yes))
Inhibition of mouse microglial phagocytosis at 10 μM (<70% control) ([2]; BV2 cells, 10 μM): Y (The compound was found to inhibit phagocytosis (response threshold: <70% control) when murine immortalized microglial cells were dosed at 10 μM (Y: yes))
Inhibition of human microglial phagocytosis at 10 μM (<70% control) ([3]; HMC3 cells, 10 μM): Y (The compound was found to inhibit phagocytosis (response threshold: <70% control) when human immortalized microglial cells were dosed at 10 μM (Y: yes))
Reported as cell active (<10 μM) (cellular system): Y (Published data supports that the compound is active in a cellular system when dosed at 10 μM (Y/N))
Kinetic solubility [5]: 101.8 µM

SMILES: Cc1c(-c2ccc(O)cc2)n(Cc2ccc(OCCN3CCCCCC3)cc2)c2ccc(O)cc12 [Bazedoxifene acetate]
Inhibition of mouse microglial phagocytosis at 10 μM (<70% control) ([2]; 10 μM, BV2): Y (The compound was found to inhibit phagocytosis (response threshold: <70% control) when murine immortalized microglial cells were dosed at 10 μM (Y: yes))
Inhibition of human microglial phagocytosis at 10 μM (<70% control) ([3]; 10 μM, HMC3): Y (The compound was found to inhibit phagocytosis (response threshold: <70% control) when human immortalized microglial cells were dosed at 10 μM (Y: yes))
solubility kinetic (physchem; [6]): 10.8 µM

SMILES: CC(=O)N1CCC(NC(=O)NC23CC4CC(CC(C4)C2)C3)CC1 [AR9281]
Stimulation of mouse microglial phagocytosis at 10 μM (>150% control) ([2]; BV2, 10 μM): Y (The compound was found to stimulate phagocytosis (response threshold: >150% control) when murine immortalized microglial cells were dosed at 10 μM (Y: yes))
solubility kinetic (physchem; [6]): 163 µM (≈ 51.9 µg/mL)

SMILES: CN(C)CC#Cc1ccc(OCCCc2sc(N3CCc4cccc(C(=O)Nc5nc6ccccc6s5)c4C3)nc2C(=O)O)c(F)c1 [A-1155463]
Stimulation of mouse microglial phagocytosis at 10 μM (>150% control) ([2]; BV2, 10 μM): Y (The compound was found to stimulate phagocytosis (response threshold: >150% control) when murine immortalized microglial cells were dosed at 10 μM (Y: yes))
Inhibition of human microglial phagocytosis at 10 μM (<70% control) ([3]; HMC3, 10 μM): Y (The compound was found to inhibit phagocytosis (response threshold: <70% control) when human immortalized microglial cells were dosed at 10 μM (Y: yes))
solubility kinetic (physchem; [6]): 1.5 µM (≈ 1 µg/mL)

SMILES: CNC(=O)c1c(F)cccc1Nc1nc(Nc2cc3c(cc2OC)CCN3C(=O)CN(C)C)nc2[nH]ccc12 [GSK1838705A]
Mouse microglial cytotoxicity at 10 μM (<70% control) ([1]; BV2, 10 μM): Y (The compound was found to be cytotoxic (cell count threshold: <70% control) when murine immortalized microglial cells were dosed at 10 μM (Y: yes))
Inhibition of human microglial phagocytosis at 10 μM (<70% control) ([3]; HMC3, 10 μM): Y (The compound was found to inhibit phagocytosis (response threshold: <70% control) when human immortalized microglial cells were dosed at 10 μM (Y: yes))
solubility kinetic (physchem; [6]): 1 µM (≈ 0.533 µg/mL)

Now from value to compound, other results behind:

solubility kinetic (physchem; [6]): 8.7 µM (≈ 3.77 µg/mL)
SMILES: CC(C)Nc1cc(-c2c[nH]c(C(=O)N[C@H](CO)c3cccc(Cl)c3)c2)c(Cl)cn1 [Ulixertinib]
Mouse microglial cytotoxicity at 10 μM (<70% control) ([1]; 10 μM, BV2): Y (The compound was found to be cytotoxic (cell count threshold: <70% control) when murine immortalized microglial cells were dosed at 10 μM (Y: yes))
Stimulation of mouse microglial phagocytosis at 10 μM (>150% control) ([2]; 10 μM, BV2): Y (The compound was found to stimulate phagocytosis (response threshold: >150% control) when murine immortalized microglial cells were dosed at 10 μM (Y: yes))
Inhibition of human microglial phagocytosis at 10 μM (<70% control) ([3]; 10 μM, HMC3): Y (The compound was found to inhibit phagocytosis (response threshold: <70% control) when human immortalized microglial cells were dosed at 10 μM (Y: yes))

solubility kinetic (physchem; [6]): 117 µM (≈ 49.6 µg/mL)
SMILES: CCCCc1nc(Cl)c(CO)n1Cc1ccc(-c2ccccc2-c2nn[nH]n2)cc1 [Losartan]

solubility kinetic (physchem; pH 7.4): 177 µM (≈ 110 µg/mL)
SMILES: CC(=O)N[C@H](Cc1ccc(O)cc1)C(=O)N1CCC[C@@H]1C(=O)N1C[C@@H](O)C[C@@H]1C(=O)NCC(=O)N[C@H](C)C(=O)NCC(N)=O [Rotigaptide] (Ac-[dY][dP][dHyp]G[dA]G-NH2)

solubility kinetic (physchem; [6]): 134 µM (≈ 96.7 µg/mL)
SMILES: C=Cc1c(C)c2cc3nc(cc4[nH]c(cc5nc(cc1[nH]2)C(C)=C5CCC(=O)O)c(CCC(=O)OC)c4C)[C@@]1(C)C3=CC=C(C(=O)OC)[C@H]1C(=O)OC [Verteporfin]
Stimulation of mouse microglial phagocytosis at 10 μM (>150% control) ([2]; BV2, 10 μM): Y (The compound was found to stimulate phagocytosis (response threshold: >150% control) when murine immortalized microglial cells were dosed at 10 μM (Y: yes))
Inhibition of human microglial phagocytosis at 10 μM (<70% control) ([3]; HMC3, 10 μM): Y (The compound was found to inhibit phagocytosis (response threshold: <70% control) when human immortalized microglial cells were dosed at 10 μM (Y: yes))

solubility kinetic (physchem; [6]): < 0.5 µM
SMILES: CCCN(CC1CC1)c1nc(C)nc(Nc2c(Cl)cc(Cl)cc2Cl)c1Cl.Cl [NBI 27914 (Compound 7a)]
Mouse microglial cytotoxicity at 10 μM (<70% control) ([1]; BV2, 10 μM): Y (The compound was found to be cytotoxic (cell count threshold: <70% control) when murine immortalized microglial cells were dosed at 10 μM (Y: yes))
Stimulation of mouse microglial phagocytosis at 10 μM (>150% control) ([2]; BV2, 10 μM): Y (The compound was found to stimulate phagocytosis (response threshold: >150% control) when murine immortalized microglial cells were dosed at 10 μM (Y: yes))

solubility kinetic (physchem; [6]): 0.9 µM (≈ 0.505 µg/mL)
SMILES: CC(C)(C)c1cc(NC(=O)Nc2ccc(-c3cn4c(n3)sc3cc(OCCN5CCOCC5)ccc34)cc2)no1 [Quizartinib]

solubility kinetic (physchem; [6]): 115 µM (≈ 54.3 µg/mL)
SMILES: CNC(=O)CN1CCC(Oc2cc3c(Nc4cccc(Cl)c4F)ncnc3cc2OC)CC1 [Sapitinib (AZD8931)]
Inhibition of mouse microglial phagocytosis at 10 μM (<70% control) ([2]; BV2, 10 μM): Y (The compound was found to inhibit phagocytosis (response threshold: <70% control) when murine immortalized microglial cells were dosed at 10 μM (Y: yes))
Stimulation of human microglial phagocytosis at 10 μM (>150% control) ([3]; HMC3, 10 μM): Y (The compound was found to stimulate phagocytosis (response threshold: >150% control) when human immortalized microglial cells were dosed at 10 μM (Y: yes))

solubility kinetic (physchem; [6]): 87.3 µM (≈ 65.3 µg/mL)
SMILES: COc1ccc(CC[C@@H](OC(=O)[C@@H]2CCCCN2C(=O)[C@H](c2cc(OC)c(OC)c(OC)c2)C2CCCCC2)c2cccc(OCC(=O)O)c2)cc1OC [SAFit1]
Stimulation of mouse microglial phagocytosis at 10 μM (>150% control) ([2]; 10 μM, BV2): Y (The compound was found to stimulate phagocytosis (response threshold: >150% control) when murine immortalized microglial cells were dosed at 10 μM (Y: yes))

solubility kinetic (physchem; [6]): 108 µM (≈ 37.9 µg/mL)
SMILES: Cc1cc(NC(=O)Cc2ccc(F)c(Cl)c2)n(C2CCCCC2)n1 [VU0810464]
